According to patent US10280173B2, “Ibrutinib solid forms and production process therefor” (WAVELENGTH ENTERPRISES LTD., priority 2014, dated 2019):

Experiments:
[1] = Hygroscopicity test according to the European Pharmacopoeia, 5.11; type: physicochemical; details: 80±2% relative humidity, 25° C., 24 hours
Experimental: The hygroscopicity test was carried out according to the European Pharmacopoeia, 5.11 Characters Section in Monographs at ambient temperature (about 25° C.) on substance “as is”.
Desiccator with saturated ammonium chloride solution was prepared as follows: to a 100 mL of water was added accurately weighed 46.3 g of ammonium chloride under mixing. The solubility of ammonium chloride in water at ambient temperature is about 41.4 g/100 mL water at 30° C. An amount of amorphous ibrutinib was placed in a glass weighing vessel with stopper (m1) and weighed (m2). The un-stoppered vessel was placed in a desiccator containing a saturated solution of ammonium chloride (80±2% relative humidity) at 25° C. for 24 hours. The weighing vessel was stoppered and weighed (m3). The percentage increase in mass was calculated according to the following formula: […]
The following Table 10 includes the standard defined hygroscopicity values according to the European Pharmacopoeia, 5.11 Characters Section in Monographs: […]

[2] = rats; cited from earlier work

degree of hygroscopicity [1] | Increase in mass % ([1]; substance as is) | Increase in mass g ([1]; m3 minus m2) | SMILES | oral bioavailability [2]
slightly hygroscopic | 1.24% | 0.01077 g | C=CC(=O)N1CCC[C@@H](n2nc(-c3ccc(Oc4ccccc4)cc3)c3c(N)ncnc32)C1 [amorphous ibrutinib] | –
– | – | – | C=CC(=O)N1CCC[C@@H](n2nc(-c3ccc(Oc4ccccc4)cc3)c3c(N)ncnc32)C1 [ibrutinib, 1-[(3R)-3-[4-amino-3-(4-phenoxyphenyl)-1H-pyrazolo[3,4-d]pyrimidin-1-yl]piperidin-1-yl]prop-2-en-1-one] | 22.8%
